Results taken from paper PMC6905855, “Agonist-specific voltage-dependent gating of lysosomal two-pore Na^+ channels” (eLife, 2019).
Where “and” joins values, the source holds several entries; their conditions need not be identical. Identical values can stand only once.

What was measured:
[1] = target: T1, surface-expressing mutant TPC2 channel (TPC2^LL/AA) in HEK293 cells (Homo sapiens, UniProt Q8NHX9, L11A/L12A); test: Whole-cell recordings of ITPC2-LL/AA; format: cell-based; settings: for voltage-dependent inactivation of ITPC2, I1s / 0s: @-140mV; for time course of LyNa-VA1.2-induced ITPC2: wc; for current density: whole cell recordings
T1 construct: expressed in transfected cells; host or cells: HEK293
T1 sequence (Q8NHX9 whole entry L11A/L12A): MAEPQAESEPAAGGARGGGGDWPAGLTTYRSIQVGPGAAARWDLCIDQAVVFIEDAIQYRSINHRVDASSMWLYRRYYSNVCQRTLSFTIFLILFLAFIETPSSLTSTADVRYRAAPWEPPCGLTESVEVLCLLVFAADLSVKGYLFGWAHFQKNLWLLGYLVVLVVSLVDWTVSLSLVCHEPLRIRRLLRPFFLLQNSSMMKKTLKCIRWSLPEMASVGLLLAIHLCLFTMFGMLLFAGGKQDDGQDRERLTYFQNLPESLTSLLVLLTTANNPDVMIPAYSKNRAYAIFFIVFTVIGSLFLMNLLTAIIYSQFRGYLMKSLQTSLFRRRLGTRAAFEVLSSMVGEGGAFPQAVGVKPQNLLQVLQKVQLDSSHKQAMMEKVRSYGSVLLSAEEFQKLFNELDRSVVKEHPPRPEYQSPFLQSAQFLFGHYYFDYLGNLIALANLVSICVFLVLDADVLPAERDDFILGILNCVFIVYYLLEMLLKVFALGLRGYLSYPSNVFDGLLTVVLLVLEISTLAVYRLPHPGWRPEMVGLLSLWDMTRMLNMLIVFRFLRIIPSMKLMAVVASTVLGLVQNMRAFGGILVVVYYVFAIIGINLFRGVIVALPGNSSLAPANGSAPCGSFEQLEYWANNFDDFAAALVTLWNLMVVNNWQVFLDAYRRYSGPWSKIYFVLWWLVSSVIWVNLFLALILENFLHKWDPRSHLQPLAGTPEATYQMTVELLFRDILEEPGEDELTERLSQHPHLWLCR
Outline: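 HEK293 cells transiently expressing EGFP-tagged human TPC2 L11A/L12A, a plasma-membrane-targeted mutant, recorded 24–36 h post-transfection. Whole-cell patch clamp with fast perfusion of bath solutions; currents digitized at 10 kHz and filtered at 2 kHz.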

[2] = target: T2, hTPC2 (Homo sapiens, UniProt Q8NHX9); test: Whole-endolysosome recordings of ITPC2; format: biochemical; settings: for inactivation of ITPC2, I500ms / I10ms: @-120mV; for time course of LyNa-VA1.2-induced ITPC2: EL
T2 construct: expressed in transfected cells; host or cells: Cos1 and HEK293
T2 sequence (Q8NHX9 whole entry): as the sequence (Q8NHX9 whole entry L11A/L12A) above, with A11L, A12L counted along it

[3] = target: T3, hTPC1 (Homo sapiens, UniProt Q9ULQ1); test: Whole-endolysosome recordings of ITPC1; format: biochemical
T3 construct: expressed in transfected cells; host or cells: Cos1
Experimental: It was therefore of interest to explore whether TCAs/LyNa-VAs could also act on TPC1. To investigate this, we used two different voltage paradigms. […] Second, we used a tail current paradigm to measure the amplitude of the peak inward current at −120 mV following prolonged steps to various potentials (Figure 4E).
Figure 4. […] HP = 0 mV. […] Dotted lines in A indicate where the currents were measured. […] Data are presented as Mean ± S.E.M (n = 3 patches). […] (G) Normalized I-V plots of basal voltage-dependent currents in WT TPC1- and TPC1^R540I-transfected cells. […] Figure 4—source data 1. […] Figure 4—figure supplement 1. […] (A) A voltage protocol that elicited ITPC1 tail currents as shown in Figure 4E (from −140 to 100 mV with a ∆V = 20 mV, 1 s with a 10 s inter-step interval). Arrows indicate where tail currents were measured. (B) A voltage protocol that elicited ITPC1 tail currents as shown in C. […] HP = 0 mV. […] (A) Basal whole-endolysosome ITPC1 (left) or ITPC1-R540I (right) was elicited by voltage steps (−140 to +100 mV with ΔV = 20 mV) in the absence of PI(3,5)P2 in TPC1-transfected Cos1 cells ([She et al., 2019]). Tail currents were elicited at −120 mV. (B) The effects of PI(3,5)P2 (0.3 µM) on ITPC1 (left) and ITPC1-R540I (right) step currents. […] A preconditioning voltage (+80 mV, 0.1 s) was applied before voltage steps starting from −140 to 100 mV (0.5 s, ∆V = 20 mV).
All TPC1 and TPC2 mutants were generated with a site-directed mutagenesis kit (Qiagen) using EGFP- human TPC1 and TPC2 as the templates. All constructs were confirmed by DNA sequencing.
Whole-endolysosome recordings were performed on manually isolated enlarged endolysosomes ([Wang et al., 2012]). In brief, a patch pipette was pressed against a cell and quickly pulled away to slice the cell membrane. Enlarged endolysosomes were released into a dish and identified by monitoring EGFP-TPC1/2 or the mCherry-TPC1/2 fluorescence. After formation of a gigaseal between the patch pipette and the enlarged endolysosome, capacitance transients were compensated. Voltage steps of several hundred mVs with millisecond duration were then applied to break into the vacuolar membrane. The whole-endolysosome configuration was verified by the re-appearance of capacitance transients after break-in.
Data were collected using an Axopatch 200A patch clamp amplifier, Digidata 1440, and pClamp 10.2 software (Axon Instruments). Whole-endolysosome currents were digitized at 10 kHz and filtered at 2 kHz. All experiments were conducted at room temperature (21–23°C), and all recordings were analyzed with pClamp 10.2, and Origin 8.0 (OriginLab, Northampton, MA). The permeability to cations (relative to PNa) was estimated based on following equations ([Lewis, 1979]) and Erev measurement under bi-ionic conditions:(1) PX/PNa=γNa/γX{[Na^+]Luminal/[X^+]Cytoplasmic}{exp([…])} (2) PCa/PNa=γNa/γCa{[Na^+]Cytoplasmic/[4[Ca^2+]Luminal}{exp(ErevF/RT)}{1+exp(ErevF/RT)} where R, T, F, Erev, and γ are, respectively, the gas constant, absolute temperature, Faraday constant, reversal potential, and activity coefficient. The liquid junction potentials were measured and corrected as described ([Neher, 1992]).

[4] = whole cell, 200 µM, individual recordings
[5] = whole-cell, 200 µM, mean ± S.E.M
[6] = lysosome, 200 µM, individual recordings
[7] = whole-endolysosome, 200 µM, mean ± S.E.M

CNCCCN1c2ccccc2CCc2ccccc21 [LyNa-VA1.2, Desipramine]
voltage-dependent inactivation of ITPC2, I1s / 0s ([1]; whole-cell, individual recordings): 0.09192 and 0.1098 and 0.1458
voltage-dependent inactivation of ITPC2, I1s / 0s ([1]; whole-cell, mean): 0.1158
activation of whole-cell ITPC2-LL/AA (in words) ([1]; bath application, symmetric Na^+, 100 µM where stated): ITPC2 was evoked
time course of LyNa-VA1.2-induced ITPC2 ([1]; time 0 s): -0.02373
time course of LyNa-VA1.2-induced ITPC2 ([1]; time 2 s): -0.02853
time course of LyNa-VA1.2-induced ITPC2 ([1]; time 4 s): -0.024
time course of LyNa-VA1.2-induced ITPC2 ([1]; time 6 s): -0.02111
time course of LyNa-VA1.2-induced ITPC2 ([1]; time 8 s): -0.02193
time course of LyNa-VA1.2-induced ITPC2 ([1]; time 10 s): -0.01987
time course of LyNa-VA1.2-induced ITPC2 ([1]; time 12 s): -0.0181
time course of LyNa-VA1.2-induced ITPC2 ([1]; time 14 s): -0.01154
time course of LyNa-VA1.2-induced ITPC2 ([1]; time 16 s): -7.79E-04
time course of LyNa-VA1.2-induced ITPC2 ([1]; time 18 s): -0.01449
time course of LyNa-VA1.2-induced ITPC2 ([1]; time 20 s): -0.01685
time course of LyNa-VA1.2-induced ITPC2 ([1]; time 22 s): -0.0503
time course of LyNa-VA1.2-induced ITPC2 ([1]; time 24 s): -0.06829
time course of LyNa-VA1.2-induced ITPC2 ([1]; time 26 s): -0.1356
time course of LyNa-VA1.2-induced ITPC2 ([1]; time 28 s): -0.1797
time course of LyNa-VA1.2-induced ITPC2 ([1]; time 30 s): -0.2005
time course of LyNa-VA1.2-induced ITPC2 ([1]; time 32 s): -0.2805
time course of LyNa-VA1.2-induced ITPC2 ([1]; time 34 s): -0.3854
time course of LyNa-VA1.2-induced ITPC2 ([1]; time 36 s): -0.4381
time course of LyNa-VA1.2-induced ITPC2 ([1]; time 38 s): -0.4224
time course of LyNa-VA1.2-induced ITPC2 ([1]; time 40 s): -0.5193
time course of LyNa-VA1.2-induced ITPC2 ([1]; time 42 s): -0.5569
time course of LyNa-VA1.2-induced ITPC2 ([1]; time 44 s): -0.6324
time course of LyNa-VA1.2-induced ITPC2 ([1]; time 46 s): -0.7257
time course of LyNa-VA1.2-induced ITPC2 ([1]; time 48 s): -0.7464
time course of LyNa-VA1.2-induced ITPC2 ([1]; time 50 s): -0.8325
time course of LyNa-VA1.2-induced ITPC2 ([1]; time 52 s): -0.8418
time course of LyNa-VA1.2-induced ITPC2 ([1]; time 54 s): -0.8932
time course of LyNa-VA1.2-induced ITPC2 ([1]; time 56 s): -0.9277
time course of LyNa-VA1.2-induced ITPC2 ([1]; time 58 s): -0.9561
time course of LyNa-VA1.2-induced ITPC2 ([1]; time 60 s): -0.9666
time course of LyNa-VA1.2-induced ITPC2 ([1]; time 62 s): -0.9966
time course of LyNa-VA1.2-induced ITPC2 ([1]; time 64 s): -0.9748
time course of LyNa-VA1.2-induced ITPC2 ([1]; time 66 s): -1.0004
current density ([1]; 5 µM, individual recordings): 10.3471 pA/pF and 4.752 pA/pF and 3.368 pA/pF and 5.887 pA/pF
current density ([1]; 10 µM, individual recordings): 14.5785 pA/pF and 6.451 pA/pF and 2.849 pA/pF and 8.548 pA/pF
current density ([1]; 20 µM, individual recordings): 24.0331 pA/pF and 8.699 pA/pF and 7.085 pA/pF and 17.3826 pA/pF
current density ([1]; 50 µM, individual recordings): 89.8595 pA/pF and 25.0088 pA/pF and 25.4245 pA/pF and 76.3478 pA/pF
current density ([1]; 100 µM, individual recordings): 240.859 pA/pF and 94.6372 pA/pF and 96.3302 pA/pF and 256.8 pA/pF
current density ([1]; 200 µM, individual recordings): 297.455 pA/pF and 239.381 pA/pF and 181.434 pA/pF and 429.652 pA/pF
current density ([1]; 400 µM, individual recordings): 245.487 pA/pF and 193.066 pA/pF and 464.052 pA/pF
Latency of induced ITPC2 [1, 4]: 14 s and 12 s and 20 s
Time constant (τ) of induced ITPC2 [1, 4]: 55 s and 48 s and 30.1 s and 39.1 s
EC50 ([1]; whole-cell recordings at −140 mV, TPC2^LL/AA-transfected HEK293 cells, read-out: EC50): 87 ± 8 µM
latency of TPC2 activation [1, 5]: 15 ± 2 s
time constant (τ) of TPC2 activation [1, 5]: 43 ± 5 s
inactivation of ITPC2, I500ms / I10ms ([2]; PI(3,5)P2 0.3 µM, LyNa-VA1.2 100 µM, LyNA1 300 µM, individual tests): 0.6243 and 0.7434 and 0.4902 and 0.5999 and 0.6758
inactivation of ITPC2, I500ms / I10ms ([2]; mean): 0.6267
time course of LyNa-VA1.2-induced ITPC2 ([2]; time 0 s): -0.016
time course of LyNa-VA1.2-induced ITPC2 ([2]; time 2 s): -0.01474
time course of LyNa-VA1.2-induced ITPC2 ([2]; time 4 s): -0.01598
time course of LyNa-VA1.2-induced ITPC2 ([2]; time 6 s): -0.00988
time course of LyNa-VA1.2-induced ITPC2 ([2]; time 8 s): -0.00688
time course of LyNa-VA1.2-induced ITPC2 ([2]; time 10 s): -0.02054
time course of LyNa-VA1.2-induced ITPC2 ([2]; time 12 s): -0.02108
time course of LyNa-VA1.2-induced ITPC2 ([2]; time 14 s): -0.1089
time course of LyNa-VA1.2-induced ITPC2 ([2]; time 16 s): -0.1984
time course of LyNa-VA1.2-induced ITPC2 ([2]; time 18 s): -0.2507
time course of LyNa-VA1.2-induced ITPC2 ([2]; time 20 s): -0.3079
time course of LyNa-VA1.2-induced ITPC2 ([2]; time 22 s): -0.5611
time course of LyNa-VA1.2-induced ITPC2 ([2]; time 24 s): -0.7092
time course of LyNa-VA1.2-induced ITPC2 ([2]; time 26 s): -0.8241
time course of LyNa-VA1.2-induced ITPC2 ([2]; time 28 s): -0.8579
time course of LyNa-VA1.2-induced ITPC2 ([2]; time 30 s): -0.8577
time course of LyNa-VA1.2-induced ITPC2 ([2]; time 32 s): -0.9123
time course of LyNa-VA1.2-induced ITPC2 ([2]; time 34 s): -1
time course of LyNa-VA1.2-induced ITPC2 ([2]; time 36 s): -0.9719
time course of LyNa-VA1.2-induced ITPC2 ([2]; time 38 s): -0.9923
time course of LyNa-VA1.2-induced ITPC2 ([2]; time 40 s): -0.9868
time course of LyNa-VA1.2-induced ITPC2 ([2]; time 42 s): -0.989
Latency of induced ITPC2 [2, 6]: 6 s and 8 s and 10 s
Time constant (τ) of induced ITPC2 [2, 6]: 6.38 s and 6 s and 5.4 s
ITPC2 ([2]; whole endolysosome recordings with 100 µM of LyNa-VAs at −120 mV): 1120 ± 94 pA
latency of TPC2 activation [2, 7]: 7 ± 1 s
time constant (τ) of TPC2 activation [2, 7]: 8 ± 2 s
Dose-dependent activation of TPC1 (normalized ITPC1) ([3]; 3 µM, individual patches): 0.01236 and 0.1007 and 0.1129
Dose-dependent activation of TPC1 (normalized ITPC1) ([3]; 3 µM, mean): 0.07532
Dose-dependent activation of TPC1 (normalized ITPC1) ([3]; 10 µM, individual patches): 0.3905 and 0.6013 and 0.2982
Dose-dependent activation of TPC1 (normalized ITPC1) ([3]; 10 µM, mean): 0.43
Dose-dependent activation of TPC1 (normalized ITPC1) ([3]; 30 µM, individual patches): 0.9756 and 1 and 0.7567
Dose-dependent activation of TPC1 (normalized ITPC1) ([3]; 30 µM, mean): 0.9108
Dose-dependent activation of TPC1 (normalized ITPC1) ([3]; 100 µM, individual patches): 1 (2×) and 0.518
Dose-dependent activation of TPC1 (normalized ITPC1) ([3]; 100 µM, mean): 0.8393
Dose-dependent activation of TPC1 (normalized ITPC1) ([3]; 300 µM, individual patches): 0.9299 and 0.7273
Dose-dependent activation of TPC1 (normalized ITPC1) ([3]; 300 µM, mean): 0.8286
EC50 ([3]; whole-endolysosome, n = 3 patches, read-out: EC50, activation of TPC1): 10 ± 1 µM
